Measured values taken from publication PMC12444550, “Design, Synthesis, and Trypanosomicidal Evaluation of Eugenol-Based Azole Hybrids: Discovery of an In Vitro Active and Selective Compound” (ACS Omega, 2025).
Where two headings read alike, the source gives them in different places.

How the values were obtained:
[1] = system: T. cruzi Y strain amastigote forms; experiment: Anti-T. cruzi activity against intracellular amastigote forms in infected Vero or H9c2 cells; format: cell-based, Trypanosoma cruzi; settings: Vero or H9c2 cells infected with amastigote forms, 48 h of incubation, fixed concentration 50 μmol·L^–1
Experimental: (§1) The T. cruzi Y strain was selected for this study due to its known partial sensitivity to benznidazole chemotherapy.
Vero or H9c2 cells (7.5 × 10^3 cells/well) were seeded on sterile glass coverslips placed in 24-well plates and incubated for 24 h at 37 °C in 5% CO2 to allow cell adhesion. Following this period, cells were infected with trypomastigote forms of T. cruzi Y strain at a ratio of 20 parasites per cell. After 24 h of parasite-host interaction, noninternalized parasites were removed by washing with fresh medium, and the infected monolayers were incubated for 48 h with the hybrid compounds at a fixed concentration of 50 μmol·L^–1, following toxicity parameters. Infected but untreated cells were included as negative controls in all experiments. At the end of the treatment period, coverslips were washed with medium, fixed with methanol, and stained with Giemsa solution. After drying, the coverslips were mounted onto microscope slides using Entellan (Merck) and analyzed under a light microscope at 100× magnification. At least 200 cells were counted per coverslip, and only intracellular parasite forms with characteristic morphology were considered for analysis. The infection index was determined by the percentage of infected cells relative to the total number of cells analyzed. The inhibition percentage was calculated based on the reduction in infection in treated samples compared to the untreated control. Dose–response curves were constructed using GraphPad Prism 8 and CompuSyn (Biosoft, U.K.). All experiments were performed in triplicate, with at least two technical replicates per condition.

[2] = Cell viability assay (resazurin), Vero cells; format: cell-based; settings: African green monkey, Vero cells; resazurin method; 48 h incubation; read-out: Cytotoxicity CC50 Vero
Experimental: (§2) Vero and H9c2 cells (2 × 10^3 cells/well) were seeded in 96-well plates in Dulbecco’s modified Eagle’s medium (DMEM) supplemented with 5% fetal bovine serum (FBS) and incubated for 24 h at 37 °C in a humidified atmosphere with 5% CO2. After incubation, the medium was replaced with fresh DMEM + 5% FBS containing serial dilutions of each hybrid compound (1400 to 175 μmol·L^–1). Cells were exposed to the compounds for 48 h. Four wells with untreated cells served as a positive control. Additionally, eight wells without cells were maintained as negative controls: four containing DMEM + 5% FBS + resazurin (1 mmol·L^–1), and four containing only DMEM + 5% FBS. After the 48-h incubation, the treatment medium was removed and replaced with DMEM + 5% FBS containing 10% resazurin solution (1 mmol·L^–1). Plates were incubated for an additional 6 h, and then absorbance was measured at 570 and 600 nm using a microplate reader. Dose–response curves were constructed using GraphPad Prism 8 software, and CC50 values were determined by nonlinear regression.

[3] = system: T. cruzi Y strain trypomastigote forms; experiment: Anti-T. cruzi activity against trypomastigote forms; format: cell-based; settings: for EC50: read-out: Y strain T. cruzi EC50 Trypomastigote; for trypanosomicidal activity (parasite mortality): at 100 μmol·L^–1, trypomastigotes; for SI (selectivity index): mammalian cell CC50 versus trypomastigote EC50
Experimental: as §1
Trypomastigote forms of T. cruzi (2.5 × 10^5 parasites/well) were incubated in 96-well plates with serial dilutions of the hybrid compounds (100, 50, 25, and 12.5 μmol·L^–1) for 24 h at 37 °C in a humidified 5% CO2 atmosphere. Following incubation, parasite viability was assessed under an optical microscope by evaluating motility, and the number of live parasites was quantified using a Neubauer chamber. Untreated parasite cultures were maintained in parallel as negative controls. The mortality percentage was calculated by comparing the number of live parasites in treated wells to that of untreated controls. All experiments were conducted in triplicate with at least two technical replicates per concentration. EC50 values were determined by nonlinear regression using GraphPad Prism 8 and CompuSyn software (Biosoft, U.K.).

[4] = Cell viability assay (resazurin), H9c2 cells; format: cell-based; settings: rat, resazurin method, 48 h incubation, read-out: Cytotoxicity CC50 H9c2
Experimental: as §2

Vero cells = experiment: Cell viability assay (resazurin), Vero cells; format: cell-based; settings: 48 h; 1400 to 175 μmol·L^–1
Experimental: as §2

Trypanosoma cruzi = settings: cited from earlier work
[5] = system: T. cruzi intracellular amastigote forms; settings: in vitro; cited from earlier work
[6] = Trypanosoma cruzi, 24 h, 24 h of incubation, Y strain

SMILES	EC50 ([1]; Trypanosoma cruzi) [µM]	CC50 at 48 h [2] [µM]	EC50 [3, 6] [µM]	CC50 at 48 h [4] [µM]	further results
COc1cc(CC(O)Cn2cncn2)ccc1O (racemic) [Compound 18, (±)-4-(2-Hydroxy-3-(1H-1,2,4-triazol-1-yl)propyl)-2-methoxyphenol]	> 50	> 1300	> 100	> 1300	–
COc1cc(CC(O)Cn2cncn2)cc([N+](=O)[O-])c1O (racemic) [Compound 19, (±)-4-(2-Hydroxy-3-(1H-1,2,4-triazol-1-yl)propyl)-2-methoxy-6-nitrophenol]	> 50	> 1300	> 100	> 1300	–
COc1ccc(CC(O)Cn2cncn2)cc1OC (racemic) [Compound 20, (±)-1-(3,4-Dimethoxyphenyl)-3-(1H-1,2,4-triazol-1-yl)propan-2-ol]	> 50	> 1400	> 100	> 1300	cytotoxicity toward Vero cells (in words) (Vero cells): significantly higher cytotoxicity
COc1cc(CC(O)Cn2cncn2)cc([N+](=O)[O-])c1OC (racemic) [Compound 21, (±)-1-(3,4-Dimethoxy-5-nitrophenyl)-3-(1H-1,2,4-triazol-1-yl)propan-2-ol]	> 50	> 1300	> 100	> 1300	–
COc1cc(CC(O)Cn2cncn2)ccc1OCc1ccccc1 (racemic) [Compound 22, (±)-1-(4-(Benzyloxy)-3-methoxyphenyl)-3-(1H-1,2,4-triazol-1-yl)propan-2-ol]	> 50	> 1300	> 100	> 1300	–
COc1cc(CC(O)Cn2cncn2)cc([N+](=O)[O-])c1OCc1ccccc1 (racemic) [Compound 23, (±)-1-(4-(Benzyloxy)-3-methoxy-5-nitrophenyl)-3-(1H-1,2,4-triazol-1-yl)propan-2-ol]	> 50	> 1300	> 100	> 1300	activity against trypomastigote forms (in words) ([3]; Y strain, up to 100 μmol·L^–1): inactive
COc1cc(CC(O)Cn2ccnc2)ccc1O (racemic) [Compound 24, (±)-4-(2-Hydroxy-3-(1H-imidazol-1-yl)propyl)-2-methoxyphenol]	> 50	> 1300	> 100	> 1300	–
COc1cc(CC(O)Cn2ccnc2)cc([N+](=O)[O-])c1O (racemic) [Compound 25, (±)-4-(2-Hydroxy-3-(1H-imidazol-1-yl)propyl)-2-methoxy-6-nitrophenol]	> 50	860	> 100	> 1300	cytotoxicity toward Vero cells (in words) (Vero cells): significantly higher cytotoxicity
COc1ccc(CC(O)Cn2ccnc2)cc1OC (racemic) [Compound 26, (±)-1-(3,4-Dimethoxyphenyl)-3-(1H-imidazol-1-yl)propan-2-ol]	> 50	> 1300	> 100	> 1300	–
COc1cc(CC(O)Cn2ccnc2)cc([N+](=O)[O-])c1OC (racemic) [Compound 27, (±)-1-(3,4-Dimethoxy-5-nitrophenyl)-3-(1H-imidazol-1-yl)propan-2-ol]	> 50	> 1300	> 100	> 1300	–
COc1cc(CC(O)Cn2ccnc2)ccc1OCc1ccccc1 (racemic) [Compound 28, (±)-1-(4-(Benzyloxy)-3-methoxyphenyl)-3-(1H-imidazol-1-yl)propan-2-ol]	> 50	> 1300	> 100	> 1300	–
COc1cc(CC(O)Cn2ccnc2)cc([N+](=O)[O-])c1OCc1ccccc1 (racemic) [Compound 29, (±)-1-(4-(Benzyloxy)-3-methoxy-5-nitrophenyl)-3-(1H-imidazol-1-yl)propan-2-ol]	> 50	> 1300	–	> 1300	EC50 ([3]; 24 h of incubation, Y strain): 26.5 µM; trypanosomicidal activity (parasite mortality) ([3]; 24 h): approximately 99%; SI (selectivity index) [3]: >49
COc1cc(CC(O)Cn2ccnn2)ccc1O (racemic) [Compound 30, (±)-4-(2-Hydroxy-3-(1H-1,2,3-triazol-1-yl)propyl)-2-methoxyphenol]	> 50	> 1300	> 100	> 1300	–
COc1cc(CC(O)Cn2ccnn2)cc([N+](=O)[O-])c1O (racemic) [Compound 31, (±)-4-(2-Hydroxy-3-(1H-1,2,3-triazol-1-yl)propyl)-2-methoxy-6-nitrophenol]	> 50	> 1300	> 100	> 1300	–
COc1ccc(CC(O)Cn2ccnn2)cc1OC (racemic) [Compound 32, (±)-1-(3,4-Dimethoxyphenyl)-3-(1H-1,2,3-triazol-1-yl)propan-2-ol]	> 50	> 1300	> 100	> 1300	–
COc1cc(CC(O)Cn2ccnn2)cc([N+](=O)[O-])c1OC (racemic) [Compound 33, (±)-1-(3,4-Dimethoxy-5-nitrophenyl)-3-(1H-1,2,3-triazol-1-yl)propan-2-ol]	> 50	1190	> 100	> 1300	cytotoxicity toward Vero cells (in words) (Vero cells): significantly higher cytotoxicity
COc1cc(CC(O)Cn2ccnn2)cc([N+](=O)[O-])c1OCc1ccccc1 (racemic) [Compound 34, (±)-1-(4-(Benzyloxy)-3-methoxy-5-nitrophenyl)-3-(1H-1,2,3-triazol-1-yl)propan-2-ol]	> 50	> 1300	38.1	> 1300	SI (selectivity index) [3]: >34
COc1cc(CC(O)Cn2ccnc2)cc([N+](=O)[O-])c1OCc1ccccc1 (single isomer, unassigned; (+)) [(+)-29]	–	–	~29	–	EC50 [1]: > 50 µM; EC50 ([3]; 24 h of incubation, Y strain): 28.8 µM; mortality at 100 µM ([3]; Trypanosoma cruzi, 24 h, read-out: trypanosomicidal activity (parasite mortality)): ~99%
COc1cc(CC(O)Cn2ccnc2)cc([N+](=O)[O-])c1OCc1ccccc1 (single isomer, unassigned; (-)) [(-)-29]	–	–	–	–	EC50 [1]: > 50 µM; EC50 ([3]; 24 h of incubation, Y strain, listed as (−)-29): ~29 µM; EC50 ([3]; 24 h of incubation, Y strain): 29.9 µM; trypanosomicidal activity (parasite mortality) ([3]; 24 h): approximately 99%
O=C(Cn1ccnc1[N+](=O)[O-])NCc1ccccc1 [Bz, benznidazole]	–	–	21	–	parasitological cure rates (Trypanosoma cruzi; acute or early congenital infections): 80–90%; treatment discontinuation due to adverse effects (Trypanosoma cruzi; dermatological, gastrointestinal and neurological symptoms): 10–20 % of patients
C=CCc1ccc(O)c(OC)c1 [Eug, eugenol]	–	–	–	–	EC50 ([3]; Trypanosoma cruzi, 24 h): 500 µM
CC[C@@H]([C@H](C)O)n1ncn(-c2ccc(N3CCN(c4ccc(OC[C@@H]5CO[C@@](Cn6cncn6)(c6ccc(F)cc6F)C5)cc4)CC3)cc2)c1=O [posaconazole]	–	–	–	–	inhibitory concentration against intracellular amastigotes (in words) [5]: subnanomolar concentrations
C[C@@H](c1nc(-c2ccc(C#N)cc2)cs1)[C@](O)(Cn1cncn1)c1ccc(F)cc1F [ravuconazole]	–	–	–	–	inhibitory concentration against intracellular amastigotes (in words) [5]: subnanomolar concentrations
